Measured values published in US5814646A, “Inhibitors of amyloid beta-protein production” (Eli Lilly and Company, priority 1995, dated 1998).

The molecules below were run on Aβ production in 293 751 SWE and CHO 751 SWE cells (transfected with APP-751 Swedish mutation) (assay: Aβ production inhibition activity in cells (Aβ ELISA of conditioned media, normalized for cytotoxicity by MTT)). Settings: 5 μg/ml.
Type: cell-based
Procedure: Two cell lines (human kidney cell line 293 and Chinese hamster ovary cell line CHO) were stably transfected with the gene for APP-751 containing the double mutation Lys651 -Met652 to Asn651 -Leu652 (APP-751 numbering) commonly called the Swedish mutation using the method described in Citron et al., (1992) Nature 360:672-674. The transfected cell lines were designated as 293 751 SWE and CHO 751 SWE, and were plated in Corning 96 well plates at 2.5×10^4 or 1×10^4 cells per well respectively in Dulbecco's minimal essential media plus 10% fetal bovine serum. Following overnight incubation at 37° C. in an incubator equilibrated with 10% carbon dioxide (CO2), the media were removed and replaced with 200 μL per well of media containing a test compound. After a two hour pretreatment period, the media were again removed and replaced with fresh media containing the test compound and the cells were incubated for an additional two hours.
Test compound stocks were prepared in DMSO such that at the final concentration used in the treatment, the concentration of DMSO did no exceed 0.5%. After treatment, plates were centrifuged in a Beckman GPR at 1200 rpm for five minutes at room temperature to pellet cellular debris from the conditioned media. From each well, 100 μL of conditioned media were transferred into an ELISA plate precoated with antibody 266 against βAP-13-28 (Seubert et al., supra.) and stored at 4° C. overnight. An ELISA assay employing labeled antibody 6C6 (against βAP-1-16) was run the next day to measure the amount of Aβ produced.
Cytotoxic effects of the test compounds were measured by a modification of the method of Hansen et al., (1989) J. Immun. Meth. 119:203-210. To the cells remaining in the tissue culture plate, was added 25 μL of a 3, (4,5-dimethylthiazol-2-yl)2,5-diphenyltetrazolium bromide (MTT) stock solution (5 mg/mL) to a final concentration of […]. Cells were incubated at 37° C. for one hour, and cellular activity was stopped by the addition of an equal volume of MTT lysis buffer (20% w/v sodium dodecylsulfate in 50% DMF, pH 4.7). Complete extraction was achieved by overnight shaking at room temperature. The difference in the OD562 nm and the OD650 nm was measured in a Molecular Devices UVmax microplate reader as an indicator of the cellular viability.
The results of the Aβ ELISA were fit to a standard curve and expressed as ng/mL Aβ peptide. In order to normalize for cytotoxicity, these Aβ results were divided by the MTT results and expressed as a percentage of the results from a drug -free control.
The test compounds were assayed for Aβ production inhibition activity in cells at […] using the test. The results presented in Table 1 are the mean and standard deviation of at least six replicate assays. IC50 means the concentration of test compound in micromoles/liter required to inhibit Aβ production by 50%.
CC(c1cccc(NC(=O)c2ccc(C(C)(C)C)cc2)c1)N(O)C(=S)NCc1ccccc1 (centres unmarked) [Compound 99] showed an inhibition at 5 µg/mL of 43%.
With Cc1ccc(C)c(COc2ccc(CN(O)C(=S)NCc3ccccc3)cc2)c1 [Compound 58] the inhibition at 5 µg/mL was 32%.
Work on Cc1cccc(CNC(=S)N(O)C(C)c2cccc(NC(=O)c3ccc(C(C)(C)C)cc3)c2)c1 (centres unmarked) [Compound 100] yielded an inhibition at 5 µg/mL of 1%.
CC(C)(C)c1ccc(COc2cccc(CN(O)C(=S)NCc3ccc(Cl)c(Cl)c3)c2)cc1 [Compound 51] gave an inhibition at 5 µg/mL of 38%.

Same assay, conditions: 10 μg/ml, % of drug-free control, normalized to MTT
With O=C(Nc1ccc(Cl)c(Cl)c1)c1ccccn1 [Compound 227] the “Aβ Production Inhibition Activity, % inhibition at 10 μg/ml” value was 32%.
Work on COc1ccc(NC(=O)Nc2ccc(Cl)c(Cl)c2)c(OC)c1 [Compound 144] yielded an inhibition at 10 µg/mL of 41%.
ON(Cc1ccc(-c2ccccc2)cc1)C(=S)NCc1ccc(Cl)c(Cl)c1 [Compound 76] gave an inhibition at 10 µg/mL of 13%.
CC(c1cccc(Oc2ccc(C(C)(C)C)cc2)c1)N(O)C(=S)NC(c1ccccc1)c1ccccc1 (centres unmarked) [Compound 14] showed an inhibition at 10 µg/mL of 44%.
Work on CC(C)(C)c1ccc(Oc2ccccc2NC(=S)NCc2ccc(Cl)c(Cl)c2)cc1 [Compound 183] yielded an inhibition at 10 µg/mL of 24%.
In the case of CC(C)(C)c1ccc(Oc2ccc(NC(=S)NCc3cccnc3)cc2)cc1 [Compound 121], the inhibition at 10 µg/mL is reported as 37%.
For O=C(Nc1ccc(Cl)c(Cl)c1)Nc1ncccn1 [Compound 138], the inhibition at 10 µg/mL was 7%.
For CC(C)(C)c1ccc(S(=O)(=O)c2cccc(CN(O)C(=S)NCc3ccccc3)c2)cc1 [Compound 92], the inhibition at 10 µg/mL was 25%.

Same assay, conditions: 2 h pretreatment + 2 h incubation
With CC(c1cccc(Oc2ccc(C(C)(C)C)cc2)c1)N(O)C(=S)Nc1cccc2ccccc12 (centres unmarked) [Compound 12] the IC50 was greater than 20 µM.
FC(F)(F)c1cc(NC(=S)Nc2ccc(Sc3ccccn3)cc2)ccc1Cl [Compound 223] gave an IC50 of 8.3 µM.
CC(C)(C)c1ccc(Oc2cccc(NC(=S)NCc3ccccc3)c2)cc1 [Compound 186] showed an IC50 of 9 µM.
Molecule CCC(c1cccc(Oc2ccc(C(C)(C)C)cc2)c1)N(O)C(=S)Nc1ccc(Cl)c(C(F)(F)F)c1 (centres unmarked) [Compound 23] has an IC50 of 11 µM.
Molecule CCCc1cc(C(C)(C)C)ccc1Oc1cccc(CN(O)C(=S)NCc2ccccc2)c1 [Compound 101] has an IC50 of 4.5 µM.
O=C(Nc1ccc(Cl)c(Cl)c1)Nc1cccc2ncccc12 [Compound 136] was tested, and the IC50 was 17.8 µM.
With CCCCCCNC(=S)N(O)Cc1cccc(Sc2ccc(C(C)(C)C)cc2)c1 [Compound 87] the IC50 was 9.9 µM.
CCCCCCNC(=S)N(O)Cc1cccc(Oc2ccc(C(C)(C)C)cc2)c1 [Compound 27] gave an IC50 of 9.4 µM.
CCCCOc1ccc(NC(=S)N(O)C(CC)c2cccc(Oc3ccc(C(C)(C)C)cc3)c2)cc1 (centres unmarked) [Compound 25] gave an IC50 of 16 µM.
Work on CCCCc1ccc(Oc2cccc(C(C)N(O)C(=S)NCc3ccccc3)c2)cc1 (centres unmarked) [Compound 45] yielded an IC50 of 9.2 µM.
With CC(c1cccc(OCc2ccc(C(C)(C)C)cc2)c1)N(O)C(=S)NCc1ccccc1 (centres unmarked) [Compound 75] the IC50 was 8.9 µM.
Work on CC(C)(C)c1ccc(Oc2ccccc2NC(=S)Nc2ccc(Cl)c(C(F)(F)F)c2)cc1 [Compound 170] yielded an IC50 of 4.4 µM.
CC(C)(C)c1ccc(Oc2ccc(NC(=S)NCCCc3ccccc3)cc2)cc1 [Compound 117] showed an IC50 of 17 µM.
CCCc1cc(C(C)(C)C)ccc1Oc1cccc(CN(O)C(=O)Nc2ccc(Cl)c(C(F)(F)F)c2)c1 [Compound 103] gave an IC50 of 20 µM.
In the case of S=C(Nc1ccc(Cl)cc1)Nc1ccc(Cl)c(Cl)c1 [Compound 139], the IC50 is reported as 6.6 µM.
Molecule CCCCCCSc1nnc(NC(=O)Nc2ccc(Cl)c(Cl)c2)s1 [Compound 239, 1-(5-hexylthio-1,3,4-thiadiazol-2-yl)-3-(3,4-dichlorophenyl)urea] has an IC50 of 1.4 µM.
In the case of S=C(Nc1ccc(Oc2ccccc2)cc1)Nc1ccc(Cl)c(Cl)c1 [Compound 148], the IC50 is reported as 7.5 µM.
Work on CC(C)(C)c1ccc(Oc2cccc(NC(=S)Nc3ccc(Cl)cc3)c2)cc1 [Compound 192] yielded an IC50 of 8.8 µM.
CCCCCCNC(=S)NCc1cccc(Oc2ccc(C(C)(C)C)cc2)c1 [Compound 42] gave an IC50 of 17.2 µM.
Work on O=C(Nc1ccc(Cl)c(Cl)c1)Nc1ccccc1Cl [Compound 151] yielded an IC50 of 10.1 µM.
